Positions of bridges follow the written chain, without caps; N, C: chain ends. Non-standard residues stand in square brackets, D forms with d. Residues, ends and D or L forms follow the SMILES beside them. *: point of attachment. DOTA = O=C(O)CN1CCN(CC(=O)O)CCN(CC(=O)*)CCN(CC(=O)O)CC1; dPhe(4-NHCONH2) = NC(=O)Nc1ccc(C[C@@H](N)C(=O)O)cc1; Dihydroorotyl(S) = O=C1C[C@@H](C(=O)*)NC(=O)N1; Phe(4-Cl) = N[C@@H](Cc1ccc(Cl)cc1)C(=O)O; Phe(4-NH2) = Nc1ccc(C[C@H](N)C(=O)O)cc1
Key:
[1] = parameters: method as in PMID 29668724; conditions: literature value; cited from earlier work
[2] = tested on: H69 tumor tissues expressing SSTR2; assay: Uptake and autoradiography of H69 tumor sections; type: binding, human; conditions: 10^−9 M, 90 min, rt, 10 μm sections, phosphor screen 48 h
Method: Subcutaneous fresh frozen H69 tumor tissues were cut at 10 μm thickness and immediately mounted on Starfrost glass slides (Thermo Scientific; Bleiswijk, The Netherlands). Tissue sections were incubated with washing buffer (167 mM Tris-HCl, 5 mM MgCl2) containing 0.25% BSA for 10 min at rt to prevent nonspecific binding. […] Each slide was drained off and washed with PBS. Finally, the slides were exposed to super-resolution phosphor screens for 48 h and imaged with the Cyclone system (PerkinElmer; Waltham, MA, USA). Images were analyzed and quantified using the Optiquant software Version 5 (PerkinElmer; Waltham, MA, USA).

U2OS-SSTR2 cells = assay: Uptake and internalization assay; type: cell-based, human; conditions: 10^−9 M, 2 h, 37 °C, gamma counter
Method: Human osteosarcoma cells (U2OS) stably expressing the SSTR2 receptor were used in all in vitro cell assays. Cells were cultured in Dulbecco’s modified Eagle’s medium (DMEM) from Gibco (Paisley, UK) supplemented with 2 mM L-glutamine, 10% fetal bovine serum (FBS), 50 units/mL penicillin, and 50 μg/mL streptomycin (Sigma Aldrich; Haarlerbergweg, The Netherlands) and maintained at 37 °C and in a 5% CO2 humidified chamber. Passages were performed weekly using trypsin/EDTA (0.05%/0.02% w/v).
Cells were seeded in 6-well plates 48 h before the experiment (2 × 10^5 cells/well). […] After incubation, medium was removed, and cells were washed twice with PBS. The membrane-bound fraction was collected by incubating cells with an acid buffer (50 mM glycine, 100 mM sodium chloride (NaCl), pH 2.8) for 10 min at rt. Cells were lysed using 0.5 M NaOH for 10 min at rt to acquire the internalized fraction. Both fractions were counted in a γ-counter, and data were expressed as percentage of added dose.

in vivo [3] = conditions: mouse, iv, 0.5 nmol, total radioactivity
in vivo [4] = conditions: mouse, iv, 20 MBq/0.5 nmol per animal, total radioactivity

C[C@@H](O)[C@@H]1NC(=O)[C@H](CCCCN)NC(=O)[C@@H](Cc2ccc(NC(N)=O)cc2)NC(=O)[C@H](Cc2ccc(NC(=O)[C@@H]3CC(=O)NC(=O)N3)cc2)NC(=O)[C@H](NC(=O)[C@H](Cc2ccc(Cl)cc2)NC(=O)CN2CCN(CC(=O)O)CCN(CC(=O)O)CCN(CC(=O)O)CC2)CSSC[C@@H](C(=O)N[C@H](Cc2ccc(O)cc2)C(N)=O)NC1=O [[^177Lu]Lu-JR11, metal not drawn] ({DOTA}-[Phe(4-Cl)][dC][Phe(4-NH2)](Dihydroorotyl(S))[dPhe(4-NHCONH2)]KTC[dY]-NH2; disulfide 2-7; N-terminus and C-terminus assumed)
Log D7.4 [1]: −2.5 [18] | Radioactive uptake in H69 tumor tissue sections (autoradiography) [2]: 930 ± 37 DLU/mm^2 | Total uptake in U2OS-SSTR2 cells (U2OS-SSTR2 cells): 16.2 ± 3.0 % added dose | tissue to tissue ratio at 4 h (in vivo [3]): 0.6 ± 0.05 | tissue to tissue ratio at 72 h (in vivo [3]): 1.2 ± 0.3 | tissue uptake at 4 h (in vivo [3]; Bone Marrow uptake): 1.1 ± 2 %ID/g | tissue uptake at 4 h (in vivo [3]; Intestine uptake): 0.5 ± 0.1 %ID/g | tissue uptake at 4 h (in vivo [3]; Kidneys uptake): 12.6 ± 1.2 %ID/g | tissue uptake at 24 h (in vivo [3]; Kidneys uptake): 8.6 ± 2.3 %ID/g | tissue uptake at 48 h (in vivo [3]; Kidneys uptake): 4.1 ± 0.2 %ID/g | tissue uptake at 72 h (in vivo [3]; Kidneys uptake): 3.4 ± 1.4 %ID/g | tissue uptake at 4 h (in vivo [3]; Liver uptake): 0.5 %ID/g | tissue uptake at 24 h (in vivo [3]; Liver uptake): 0.3 %ID/g | tissue uptake at 4 h (in vivo [3]; Lung uptake): 1.3 ± 0.3 %ID/g | tissue uptake at 24 h (in vivo [3]; Lung uptake): 0.4 %ID/g | tissue uptake at 4 h (in vivo [3]; Pancreas uptake): 3.5 ± 0.4 %ID/g | tissue uptake at 48 h (in vivo [3]; Pancreas uptake): 0.6 ± 0.1 %ID/g | tissue uptake at 72 h (in vivo [3]; Pancreas uptake): 0.3 %ID/g | tissue uptake at 4 h (in vivo [3]; Skin uptake): 0.3 ± 0.1 %ID/g | tissue uptake at 4 h (in vivo [3]; Spleen uptake): 0.3 ± 0.1 %ID/g | tissue uptake at 4 h (in vivo [3]; Stomach uptake): 1.7 ± 0.3 %ID/g | tissue uptake at 24 h (in vivo [3]; Stomach uptake): 1.5 ± 1.2 %ID/g | tissue uptake at 48 h (in vivo [3]; Stomach uptake): 0.6 ± 0.2 %ID/g | tissue uptake at 72 h (in vivo [3]; Stomach uptake): 0.4 ± 0.1 %ID/g | tissue uptake at 4 h (in vivo [3]; Tumor uptake): 8.4 ± 0.5 %ID/g | tissue uptake at 24 h (in vivo [3]; Tumor uptake): 6.1 ± 0.5 %ID/g | tissue uptake at 48 h (in vivo [3]; Tumor uptake): 4.6 ± 0.3 %ID/g | tissue uptake at 72 h (in vivo [3]; Tumor uptake): 3.6 ± 0.4 %ID/g | tissue uptake per volume at 4 h (in vivo [4]): 4 ± 0.6 %ID/mL | tissue uptake per volume at 24 h (in vivo [4]): 3.3 ± 0.7 %ID/mL | tissue uptake per volume at 48 h (in vivo [4]): 2.1 ± 0.5 %ID/mL | tissue uptake per volume at 72 h (in vivo [4]): 1.8 ± 0.4 %ID/mL
